Values quoted from earlier work, collected in article PMC4628094, “In Vitro Assessment of Uptake and Lysosomal Sequestration of Respiratory Drugs in Alveolar Macrophage Cell Line NR8383” (Pharmaceutical Research, 2015).
Read-outs that look alike come from different tables or passages of the source.

Experiments:
[1] = system: Lung tissue slices from male Wistar rats; set-up: method as in ref (5) (a number printed in a supplementary file, which may have a reference list of its own: not looked up in the article's list); conditions: NH4Cl 20 mM, drug 5 µM, 60 min, ref (5); cited from earlier work
[2] = system: Lung tissue slices from male Wistar rats; set-up: method as in ref (14) (a number printed in a supplementary file, which may have a reference list of its own: not looked up in the article's list); conditions: monensin 10 µM, drug 5 µM, 60 min, ref (14); cited from earlier work
[3] = system: Brain slices from male Wistar rats; set-up: method as in ref (10) (a number printed in a supplementary file, which may have a reference list of its own: not looked up in the article's list); conditions: drug 5 µM, 60 min, ref (10), cited from earlier work; for Reduction in total uptake (%): NH4Cl 20 mM; for Reduction of total uptake (%): monensin 10 µM
[4] = system: Liver tissue slices from male Wistar rats; set-up: method as in ref (14) (a number printed in a supplementary file, which may have a reference list of its own: not looked up in the article's list); conditions: monensin 10 µM, drug 5 µM, 60 min, ref (14); cited from earlier work
[5] = system: Lung tissue slices from male Wistar rats; set-up: method as in ref (8) (a number printed in a supplementary file, which may have a reference list of its own: not looked up in the article's list); conditions: NH4Cl 20 mM, drug 5 µM, 60 min, ref (8); cited from earlier work
[6] = system: Liver tissue slices from male Wistar rats; set-up: method as in ref (8) (a number printed in a supplementary file, which may have a reference list of its own: not looked up in the article's list); conditions: NH4Cl 20 mM, drug 5 µM, 60 min, ref (8); cited from earlier work
[7] = system: Liver tissue slices from male Wistar rats; set-up: method as in ref (5) (a number printed in a supplementary file, which may have a reference list of its own: not looked up in the article's list); conditions: NH4Cl 20 mM, drug 5 µM, 60 min, ref (5); cited from earlier work
[8] = system: Liver tissue slices from male Wistar rats; set-up: method as in ref (9) (a number printed in a supplementary file, which may have a reference list of its own: not looked up in the article's list); conditions: NH4Cl 20 mM, drug 5 µM, 60 min, ref (9); cited from earlier work
[9] = system: Lung tissue slices from male Wistar rats; set-up: method as in ref (9) (a number printed in a supplementary file, which may have a reference list of its own: not looked up in the article's list); conditions: NH4Cl 20 mM, drug 5 µM, 60 min, ref (9); cited from earlier work

CN(C)CCC=C1c2ccccc2CCc2ccccc21 [Amitriptyline]
Reduction in total uptake (%) [1]: 63%
Reduction of total uptake (%) [2]: 70%
Reduction in total uptake (%) [3]: 32%
Reduction of total uptake (%) [3]: 31%
Reduction of total uptake (%) [4]: 48%
Reduction in total uptake (%) [5]: 56%
Reduction in total uptake (%) [6]: 68%
Reduction in total uptake (%) [7]: 40%
Reduction in total uptake (%) [8]: 67%
Reduction in total uptake (%) [9]: 47%

CN(C)CCCN1c2ccccc2Sc2ccccc21 [Promazine]
Reduction in total uptake (%) [1]: 46.8%
Reduction of total uptake (%) [2]: 71%
Reduction in total uptake (%) [3]: 20%
Reduction of total uptake (%) [3]: 35%
Reduction of total uptake (%) [4]: 86%
Reduction in total uptake (%) [7]: 59%
